Data from patent US8017786B2, “Substituted β-phenyl-α-hydroxy-propanoic acid, synthesis method and use thereof” (Northwest University, priority 2006, dated 2011).

How the values were obtained:
Format in all cases: in vivo, rat
Bcl-2 = assay: Immunohistochemistry protein expression in I/R myocardial tissue: Bcl-2; settings: for Bcl-2 protein expression, OD value: 5 days, ischemia 30 min, reperfusion 2 h
Description: (§1) 52 SD rats having a body weight of 220±20 g were randomly divided into model control group, salviannic acid injection group (in 1 mL/kg), and group of bornyl β-(3,4-dihydroxylphenyl)-α-hydroxylpropionate ester at a small, middle and large dose (ip 5, 15, 35 mg/kg). The rats of the normal group and the model control group were ip administered with equal-volume of physiologic saline. The rats of all groups were administered for consecutive 5 days. When the rats were administered for the last time, they were simultaneously anesthetized with 1.5% pentobarbital sodium (ip 45 mg/kg), then a catheter was inserted into the right carotid artery, and connected via a transducer to an eight-channeled physiological recorder. Tracheal cannula was performed, and the ventilation rate was maintained at 60 times/min. The chest was opened, a 6/0 suture was used to form a loop at a site 1˜2 mm from the root of the anterior descending coronary artery, and a plastic pipe was introduced through the loop, then the loop was tightened up. The change of electrocardiogram was observed. An increase or decrease of ST indicated the success of ligation. The color of the myocardial tissue below the ligation suture became darker. 30 minutes later, the plastic pipe was pulled out to allow coronary artery blood flowing again and cause hyperemia of local tissue during reperfusion. For the groups subjected to ischemia for 30 min and reperfusion for 30 min, the myocardial infarction areas were recorded before the test, after ischemia for 1 min and 30 min, and after reperfusion for 30 min; for the groups subjected to ischemia for 30 min and reperfusion for 2 h, cardiac tissue samples were taken and fixed using 10% formalin, embedded with paraffin, serially sliced into sections with a thickness of 4 μm, and separately subjected to immunohistochemistry tests; the rats of the sham operation group were subjected only to the introduction of suture but their coronary arteries were not ligated.
(§2) Standard immunohistochemistry ABC and SP methods were employed for staining. Bax: anti-rabbit polyclonal antibody (Santa CruzBio. Inc.) at a dilution of 1:200; […]: anti-rabbit polyclonal antibody (TBD Tianjin Biotechnological Center). At a dilution of […]; caspase-3: anti-rabbit polyclonal antibody (Normarkers Fromont, Calif.), at a dilution of 1:200; MMP-2: anti-murine monoclonal antibody (NormarkersFromont, Calif.) at a dilution of 1:200; PPARγ: anti-caprine polyclonal antibody (Santa Cruz Bio. Inc.), at a dilution of 1:500. The specific procedures were performed in accordance with the instructions of the ABC and SP kits, DAB was used for color development, and neutral resin was used for mounting. PBS was used instead of the first antibody as a negative control. Cells with positive expression of the test polypeptides were of brown-yellow color, with MMP-2 protein being present in acytoplasm, Bcl-2 expressed in nuclear membrane and cytoplasm, Bax mainly in cytoplasm and partially in nucleus, and caspase-3 mainly in nucleus and partially in cytoplasm. CMIAS image analysis system was used for random selection of fields of slices and automatic selection of sites for analysis, and statistic analysis was performed by using mean optical density values or integral optical density values of the obtained myocardial tissue slices.

[1] = test system: lactate dehydrogenase (LDH); assay: Serum LDH activity in rats with myocardial ischemia; settings: for LDH: serum, 24 h after ligation
Description: (§3) At 0.5 h after the rats of these groups were administered intragastrically, the standard II lead electrocardiogram (before modeling) was recorded, and the height of ST-T segment was measured. The rats of sham operation group were then subjected to coronary artery braid without ligation, and the rats of other groups were subjected to coronary artery ligation in accordance with the following method to establish cute myocardial ischemia models. The rats were subjected to etherization, fixed at supine position, and their normal electrocardiograms (before modeling) were recorded. The skin of left thorax was incised under aseptic conditions, the 4th intercostal muscles were isolated in blunt way, the heart was extruded by light pressure to the right thorax, the left anterior descending coronary artery was ligated at a position 2˜3 mm departing from the left coronary artery origin and between the pulmonary conus and the left auricle of heart, then the heart was sent back to thorax cavity immediately and sutured the incision. Penicillin was smeared topically for the prevention of infections. After operation, the electrocardiogram of postischemia was recorded immediately (at 0 min after modeling), and the height of ST-T segment was measured.

MMP-2 = assay: Immunohistochemistry protein expression in I/R myocardial tissue: MMP-2; settings: for MMP-2 protein expression, OD value: 5 days, ischemia 30 min, reperfusion 2 h
Description: as §1, §2

[2] = test system: superoxide dismutase (SOD); assay: Serum SOD activity in rats with myocardial ischemia; settings: for SOD: serum, 24 h after ligation
Description: as §3

[3] = test system: rats with acute myocardial ischemia; assay: Area of myocardial infarction in rats with acute myocardial ischemia (coronary artery ligation); settings: 24 h after coronary artery ligation
Description: as §3

[4] = test system: rats with cardiac ischemia reperfusion (I/R) injury; assay: Myocardial infarction areas caused by cardiac muscle I/R; settings: for aar/lv / nec/aar / nec/lv: 5 days, ischemia 30 min, reperfusion 30 min
Description: as §1
After the rats were subjected to ischemia and reperfusion for 30 minutes, their anterior descending coronaries were ligated again, then they were sacrificed, their hearts were removed promptly, and 0.5 mL of 1% evans blue was injected into heart chambers via aorta to distinguish the ischemic regions and the non-ischemic regions. After the heart atrium and right ventricle were cut-off, the heart was refrigerated at −20° C. for 30 min, then placed in a tailor-made slice groove, and cut along the long axis to form 2 mm slices. The slices were immersed in 1% TTC phosphoric acid buffer solution (pH7.4), and incubated at 37° C. for 30 min to distinguish risky regions and necrotic regions. Then the slices were fixed with 10% formaldehyde for 24 h to enhance staining color for contrast photography. After the above treatment, the myocardial tissue was divided into: normal myocardia in blue, ischemic myocardia in light red, and necrotic myocardion in gray. A computer image analysis software was used to calculate the percentage of the area of the infarct myocardial region (nec) based on the area of the risky myocardial region (aar, i.e., ischemic myocardia, including ischemic infarct region and ischemic non-infarct region) (nec/aar), and the percentage of the area of the infarct myocardial region based on the whole area of the myocardia (nec/lv) to indicate the degree of infarct, as well as the percentage of the area of the risky myocardia based on the area of the left ventricle (aar/lv).

Question: Which results are given for `CC1(C)C2CCC1(C)C(OC(=O)C(O)Cc1ccc(O)c(O)c1)C2` (stereo not drawn) [bornyl salvianate ester, bornyl β-(3,4-dihydroxylphenyl)-α-hydroxylpropionate ester]?
Answer: Bcl-2 protein expression, OD value (Bcl-2; 5 mg/kg ip): 0.15 ± 0.03; Bcl-2 protein expression, OD value (Bcl-2; 15 mg/kg ip): 0.15 ± 0.06; Bcl-2 protein expression, OD value (Bcl-2; 35 mg/kg ip): 0.21 ± 0.04; expression of Bcl-2 protein (in words) (Bcl-2; myocardial cells I/R): increase the expression of Bcl-2 protein; LDH ([1]; 10 mg/kg intragastric): 1663.7 ± 374.43 U/L; LDH ([1]; 20 mg/kg intragastric): 2022.7 ± 202.63 U/L; LDH ([1]; 40 mg/kg intragastric): 1712.5 ± 209.1 U/L; activity of lactate dehydrogenase (LDH) (in words) ([1]; all dose groups, 24 h later): decreased; MMP-2 protein expression, OD value (MMP-2; 5 mg/kg ip): 0.14 ± 0.05; MMP-2 protein expression, OD value (MMP-2; 15 mg/kg ip): 0.14 ± 0.03; MMP-2 protein expression, OD value (MMP-2; 35 mg/kg ip): 0.11 ± 0.03; MMP-2 protein (in words) (MMP-2; myocardial I/R): decrease of MMP-2 protein; SOD ([2]; 10 mg/kg intragastric): 117.66 ± 31.97 U/mL; SOD ([2]; 20 mg/kg intragastric): 111.32 ± 20.36 U/mL; SOD ([2]; 40 mg/kg intragastric): 119.63 ± 23.53 U/mL; superoxide dismutase (SOD) (in words) ([2]; especially in the large dose group): increased; Infarct region weight ([3]; 10 mg/kg intragastric): 0.20 ± 0.05 g; Non-infarct region weight ([3]; 10 mg/kg intragastric): 0.47 ± 0.07 g; Percentage (infarct cardiac muscles of whole ventricle, by weight) ([3]; 10 mg/kg intragastric): 30.09 ± 5.69%; Ventricle weight ([3]; 10 mg/kg intragastric): 0.68 ± 0.09 g; Infarct region weight ([3]; 20 mg/kg intragastric): 0.18 ± 0.05 g; Non-infarct region weight ([3]; 20 mg/kg intragastric): 0.49 ± 0.09 g; Percentage (infarct cardiac muscles of whole ventricle, by weight) ([3]; 20 mg/kg intragastric): 25.73 ± 6.35 %; Ventricle weight ([3]; 20 mg/kg intragastric): 0.68 ± 0.08 g; Infarct region weight ([3]; 40 mg/kg intragastric): 0.18 ± 0.04 g; Non-infarct region weight ([3]; 40 mg/kg intragastric): 0.45 ± 0.06 g; Percentage (infarct cardiac muscles of whole ventricle, by weight) ([3]; 40 mg/kg intragastric): 28.95 ± 5.57 %; Ventricle weight ([3]; 40 mg/kg intragastric): 0.63 ± 0.07 g; aar/lv ([4]; 5 mg/kg ip): 64.09 ± 18.10%; nec/aar ([4]; 5 mg/kg ip): 61.72 ± 14.65%; nec/lv ([4]; 5 mg/kg ip): 48.45 ± 17.11%; aar/lv ([4]; 15 mg/kg ip): 63.02 ± 15.98%; nec/aar ([4]; 15 mg/kg ip): 62.63 ± 13.82%; nec/lv ([4]; 15 mg/kg ip): 48.23 ± 15.34%; aar/lv ([4]; 35 mg/kg ip): 51.97 ± 13.04 %; nec/aar ([4]; 35 mg/kg ip): 50.01 ± 9.03 %; nec/lv ([4]; 35 mg/kg ip): 40.21 ± 12.65 %; decrease of aar/lv in comparison with the model control group ([4]; large dose group (35 mg/kg ip)): 22.5%; decrease of nec/aar in comparison with the model control group ([4]; large dose group (35 mg/kg ip)): 22%; decrease of nec/lv in comparison with the model control group ([4]; large dose group (35 mg/kg ip)): 20.4%
